Experimental data from patent publication EP1110454A2, “5-Carboxanilido-haloalkylthiazoles as antimicrobial and marine antifouling agents” (ROHM AND HAAS COMPANY, priority 1999, dated 2001).

Key:
Format in all cases: cell-based
Rhodotorula rubra = assay: Minimum Inhibitory Concentration (MIC) test, two fold serial dilutions; design: R. Rubra M9G: unit not given here; settings: for R. Rubra M9G: Minimal Salts Media (M9G)
Method: (§1) The spectrum of antimicrobial activity of the antimicrobial agents useful in the present invention were determined in Minimum Inhibitory Concentration (MIC) tests. MICs were determined by two fold serial dilutions of a compound in Minimal Salts Media (M9G), Trypticase Soy Broth (TSB) or Tryticase Soy Broth and anionic surfactant (TSBA). The compounds were tested against Aspergillus niger, Rhodotorula rubra, Escherichia coli and Pseudomonas aeruginosa. Results of the MIC tests are shown below.

Escherichia coli = assay: as above; design: unit not given here; settings: Minimal Salts Media (M9G)
Method: as §1

[1] = tested on: Aspergillus niger, Rhodotorula rubra, Escherichia coli and Pseudomonas aeruginosa; assay: MIC tests, overall spectrum of antimicrobial activity; settings: verbal summary of the MIC results of Table 1
Method: as §1

Aspergillus niger = assay: Minimum Inhibitory Concentration (MIC) test, two fold serial dilutions; settings: Trypticase Soy Broth (TSB)
Method: as §1

| Structure (SMILES) | R. Rubra M9G (Rhodotorula rubra) | E.Coli M9G (Escherichia coli) | microbicidal activity [1] | R. Rubra TSB (Rhodotorula rubra; Trypticase Soy Broth (TSB)) | A. niger TSB (Aspergillus niger) |
| --- | --- | --- | --- | --- | --- |
| O=C(Nc1c(Br)cc(Br)cc1Br)c1sc(C(F)(F)F)nc1C(F)(F)F [Compound 26] | 300 | >300 |  |  |  |
| Cc1nc(C(F)F)c(C(=O)Nc2c(Br)cc(OC(F)(F)F)cc2Br)s1 [Compound 35] | 300 | 300 |  |  |  |
| Cc1nc(C(F)(F)F)c(C(=O)Nc2c(Cl)cc(OC(F)(F)F)cc2Cl)s1 [Compound 33] | 300 | 300 |  |  |  |
| O=C(Nc1c(Br)cc(OC(F)(F)F)cc1Br)c1sc(C(F)(F)F)nc1C(F)(F)F [Compound 29] | 300 | >300 |  |  |  |
| O=C(Nc1ccc(F)c(F)c1)c1sc(C(Cl)(Cl)Cl)nc1C(F)(F)F [Compound 43] | 30 | >300 | surprisingly effective at controlling microorganisms | 30 | >30 |
| Cc1nc(C(F)F)c(C(=O)Nc2c(Br)cc(Br)cc2Br)s1 [Compound 34] | 300 | 300 |  |  |  |
